# Reference: patent US10744114B2, “Use of eupatilin as pharmaceutical composition for prevention and treatment of fibrosis using EMT inhibitory activity” (OSTEONEUROGEN INC., priority 2016, dated 2020)
# Legend:
# [1] = tested on: ONGHEPA1 cells; assay: Global gene expression analysis (RNA-Seq) and target gene analysis; assay type: cell-based, mouse; conditions: TGF-β vs TGF-β+eupatilin, 24 hr
# Description: For a mechanism for the therapeutic effect on fibrosis, the global gene expression of DMSO-treated ONGHEPA1 cells (a control group), ONGHEPA1 cells in which fibrosis was induced by TGF-β, and ONGHEPA1 cells treated with TGF-β and eupatilin was measured.
# The cells were treated with DMSO, TGF-β or eupatilin for 24 hr, and total RNA was isolated to manufacture a library, after which about 10,000 expressed mRNA species in a total transcriptome of 30 Gb were analyzed using an Illumina High-seq sequencer.
# [2] = tested on: bleomycin-induced pulmonary fibrosis; assay: Fibrosis of lung tissue induced by bleomycin (Masson's trichrome); assay type: in vivo, C57BL/6J mice; conditions: 12 days after bleomycin 40 μg/head
# Text: Five-week-old male C57BL/6J mice (weight: 18.2 to 20.5 g) (KOATECH, Korea) were used as experimental animals, and each test group was composed of five experimental animals, as is summarized in Table 1 below.
# Pulmonary fibrosis was induced by directly injecting a bleomycin solution into the lungs via the trachea according to the intratracheal instillation (IT) method of Kremer, Laxer and Berkman et al. Specifically, C57BL/6J mice were anesthetized through inhalation with 70% N2O and 30% O2 gas and 1.5% isoflurane, and the skin of the anterior neck thereof was excised and the organs under the muscle thereof were exposed and then carefully excised using ophthalmic surgical scissors. 50 μL of a bleomycin solution in distilled water was directly injected into the lungs all at once via the excised organ using a 1 mL syringe fitted with a 19-gauge injection needle having a blunt tip. […]
# Eupatilin was used by being dissolved in a DPBS buffer (containing 1% DMSO), and the amount of eupatilin that was administered was 1 mL/kg, and the dose for each individual was calculated based on the recent body weight thereof 12 days after the administration of bleomycin, eupatilin was forcibly nasally administered once a day (5 times a week) for 1 week using a micropipette. […]
# [3] = Observation of toxic symptoms and death after administration; assay type: in vivo, C57BL/6J mice; conditions: 2 to 3 days after administration, nasal, bleomycin-treated mice
# Description: Eupatilin was used by being dissolved in a DPBS buffer (containing 1% DMSO), and the amount of eupatilin that was administered was 1 mL/kg, and the dose for each individual was calculated based on the recent body weight thereof 12 days after the administration of bleomycin, eupatilin was forcibly nasally administered once a day (5 times a week) for 1 week using a micropipette.
# [4] = tested on: Col1 (type 1 Collagen), Vim (Vimentin) and Twist; assay: Real-time RT-PCR of EMT regulators in ONGHEPA1 cells; assay type: cell-based, mouse; conditions: TGF-β + eupatilin 50 μM, 24 hr
# Description: Also in order to evaluate whether the effect of eupatilin described above is due to the influence of eupatilin on EMT, for the cells incubated for 24 hr in each test group, the extent of expression of […], for example, Col1 (type 1 Collagen), Vim (Vimentin) and Twist, was measured through real-time RT-PCR.
smiles,measurement,setting,value
"COc1ccc(-c2cc(=O)c3c(O)c(OC)c(O)cc3o2)cc1OC [eupatilin, 2-(3,4-dimethoxyphenyl)-5,7-dihydroxy-6-methoxy-chromone]",Log2fc Lethal giant larvae homolog 1 (Ligi1),[1],infinite
same,Log2fc Lysyl oxidase-like 2 (Loxl2),[1],1.93
same,Log2fc Microtubule-associated protein 4 (Map4),[1],−infinite
same,Log2fc Multiple coagulation factor deficiency 2 (Mcfd2),[1],−1.28
same,Log2fc Natriuretic peptide receptor 3 (Npr3),[1],2.82
same,Log2fc Nischarin (Nisch),[1],infinite
same,Log2fc Olfactomedin 2 (Olfm2),[1],1.9
same,Log2fc Oxysterol binding protein-like 9 (Osbpl9),[1],−infinite
same,"Log2fc Palladin, cytoskeletal associated protein (Palld)",[1],infinite
same,Log2fc Periostin (Postn),[1],−4.92
same,Log2fc Perlecan (Heparan sulfate proteoglycan2) (Hspg2),[1],infinite
same,Log2fc Pleckstrin and sec7 domain containing 3 (Psd3),[1],1.43
same,Log2fc Pleiotrophin (Ptn),[1],2.06
same,"Log2fc Procollagen lysine, 2-oxoglutarate 5-dioxygenase 2 (Plod2)",[1],−1.48
same,"Log2fc Procollagen-lysine, 2-oxoglutarate 5-dioxygenase 3 (Plod3)",[1],−2.01
same,"Log2fc Procollagen-proline, 2-oxoglutarate 4-dioxygenase (proline 4-hydroxylase), alpha 1 polypeptide (P4ha1)",[1],−1.81
same,Log2fc Prosaposin (Psap),[1],infinite
same,Log2fc Prostate androgen-regulated mucin-like protein 1 (Parm1),[1],1.57
same,Log2fc Protein FAM 53B (Fam53b),[1],infinite
same,Log2fc Protein disulfide isomerase associated 6 (Pdia6),[1],1.85
same,Log2fc Ring finger protein 145 (Rnf145),[1],−infinite
same,Log2fc Septin2 (Sept2),[1],infinite
same,"Log2fc Serin (or cysteine) peptidase inhibitor, clade F, member 1 (Serpinf1)",[1],1.99
same,"Log2fc Serine (or cysteine) peptidase inhibitor, clade E, member 1 (Serpine 1)",[1],−1.78
same,Log2fc Slit homolog 3 (Slit3),[1],3.65
same,"Log2fc Spectrin alpha, erythrocytic 1 (Spta1)",[1],4.01
same,"Log2fc Spectrin beta, non-erythrocytic 1 (Sptbn1)",[1],infinite
same,Log2fc Spectrin repeat containing nuclear envelope 2 (Syne2),[1],−infinite
same,Log2fc Surfeit 1 (SURF1),[1],−infinite
same,Log2fc Synaptopodin (Synpo),[1],−infinite
same,Log2fc TEA Domain Transcription factor 1 (TEAD1),[1],−infinite
same,Log2fc TLC domain-containing protein 2 (Tlcd2),[1],infinite
same,"Log2fc Tankyrase, TRF1-interacting ankyrin-related ADP-ribose polymerase 2 (Tnks2)",[1],−infinite
same,Log2fc Tenascin C (Tnc),[1],5.1
same,"Log2fc Thrombospondin, type I domain containing 7A (Thsd7a)",[1],5.06
same,Log2fc Thymoma viral proto-oncogene 1 (Akt1),[1],−infinite
same,Log2fc Tissue inhibitor of metalloproteinase 3 (Timp3),[1],infinite
same,Log2fc TraB domain containing 2B (Trabd2b),[1],2.75
same,Log2fc Transformation/transcription domain-associated protein (Trrap),[1],−infinite
same,"Log2fc Transforming, acidic coiled-coil containing protein 2 (Tacc2)",[1],infinite
same,"Log2fc Tropomyosin 1, alpha (Tpm1)",[1],infinite
same,Log2fc Tubulin-specific chaperone d (Tbcd),[1],2.11
same,Log2fc Ubiquitin-like modifier activating enzyme 1 (Uba1),[1],infinite
same,Log2fc Vinculin (Vcl),[1],infinite
same,Log2fc WNK lysine deficient protein kinase 1 (Wnk1),[1],−infinite
same,Log2fc Willians-Beuren syndrome chromosome region 17 homolog (Wbscr17),[1],−2.83
same,Log2fc c-fos induced growth factor (Figf),[1],2.49
same,Log2fc rho/rac guanine nucleotide exchange factor (GEF) 2 (Arhgef2),[1],−infinite
same,"Log2fc v-myc myelocytomatosis viral related oncogene, neuroblastoma derived (Mycn)",[1],2.05
same,inhibition of pulmonary fibrosis,[2]; 20 μg eupatilin nasally once a day for 1 week,inhibited
same,inhibition of pulmonary fibrosis,[2]; 40 μg eupatilin nasally once a day for 1 week,more effectively inhibited
same,toxic symptoms and occurrence of death,[3],no particularly abnormal symptoms were observed
same,expression of Col1 (type 1 Collagen),[4],inhibited
same,expression of Twist,[4],inhibited
same,expression of Vim (Vimentin),[4],inhibited
